Test results from ChEMBL document CHEMBL5465560, “Selectivity Literature for EUbOPEN Chemogenomic Library” (2024).

Tests used:
[1] = target: 5-hydroxytryptamine receptor 2B (Homo sapiens, UniProt P41595); assay: Selectivity interaction (GPCR panel (PDSP screen)) EUB0000311b HTR2B; conditions: at 10 µM
[2] = target: T1, Serine/threonine-protein kinase Nek2 (Homo sapiens) (UniProt P51955); conditions: at 10 µM
T1 sequence (whole entry): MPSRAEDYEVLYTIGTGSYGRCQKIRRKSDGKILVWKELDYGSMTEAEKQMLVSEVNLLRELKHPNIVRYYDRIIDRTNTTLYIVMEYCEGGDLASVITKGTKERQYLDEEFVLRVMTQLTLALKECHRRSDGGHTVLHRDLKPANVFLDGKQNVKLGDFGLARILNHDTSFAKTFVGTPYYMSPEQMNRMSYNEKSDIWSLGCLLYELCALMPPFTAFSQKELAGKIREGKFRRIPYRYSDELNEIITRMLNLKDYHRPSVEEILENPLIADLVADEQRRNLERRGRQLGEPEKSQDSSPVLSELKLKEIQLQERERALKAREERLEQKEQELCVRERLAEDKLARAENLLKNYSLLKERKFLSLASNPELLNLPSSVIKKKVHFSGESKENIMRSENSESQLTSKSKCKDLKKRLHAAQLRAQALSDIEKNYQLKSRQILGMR

[3] = target: Protein arginine N-methyltransferase 7 (Homo sapiens, UniProt Q9NVM4); assay: Selectivity interaction (Scintillation proximity assays) EUB0000230b PRMT7
Sequence of Protein arginine N-methyltransferase 7 (Q9NVM4 whole entry): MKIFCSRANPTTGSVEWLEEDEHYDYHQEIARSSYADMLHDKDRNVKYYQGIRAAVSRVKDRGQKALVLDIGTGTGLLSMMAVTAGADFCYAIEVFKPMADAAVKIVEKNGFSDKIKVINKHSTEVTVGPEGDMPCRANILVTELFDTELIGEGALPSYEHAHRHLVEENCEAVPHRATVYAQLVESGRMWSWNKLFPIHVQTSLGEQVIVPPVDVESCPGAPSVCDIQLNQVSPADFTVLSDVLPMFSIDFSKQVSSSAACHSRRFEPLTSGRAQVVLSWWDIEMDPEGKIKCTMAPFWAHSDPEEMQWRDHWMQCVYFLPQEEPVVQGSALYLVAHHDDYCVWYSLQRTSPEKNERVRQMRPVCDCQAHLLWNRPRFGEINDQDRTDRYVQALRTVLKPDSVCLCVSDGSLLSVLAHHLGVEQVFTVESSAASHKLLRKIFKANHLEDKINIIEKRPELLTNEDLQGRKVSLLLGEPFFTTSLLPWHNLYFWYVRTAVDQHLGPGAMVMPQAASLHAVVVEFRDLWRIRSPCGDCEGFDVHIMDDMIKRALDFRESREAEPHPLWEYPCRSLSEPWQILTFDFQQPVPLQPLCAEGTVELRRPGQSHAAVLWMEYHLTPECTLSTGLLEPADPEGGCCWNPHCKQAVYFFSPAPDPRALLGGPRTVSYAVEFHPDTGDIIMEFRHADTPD

[4] = target: Ephrin type-A receptor 7 (Homo sapiens) (UniProt Q15375); assay: Selectivity interaction (Kinase panel (DSF assay)) EUB0001559a EPHA7
Sequence of Ephrin type-A receptor 7 (Homo sapiens) (Q15375 28-998 limits assumed): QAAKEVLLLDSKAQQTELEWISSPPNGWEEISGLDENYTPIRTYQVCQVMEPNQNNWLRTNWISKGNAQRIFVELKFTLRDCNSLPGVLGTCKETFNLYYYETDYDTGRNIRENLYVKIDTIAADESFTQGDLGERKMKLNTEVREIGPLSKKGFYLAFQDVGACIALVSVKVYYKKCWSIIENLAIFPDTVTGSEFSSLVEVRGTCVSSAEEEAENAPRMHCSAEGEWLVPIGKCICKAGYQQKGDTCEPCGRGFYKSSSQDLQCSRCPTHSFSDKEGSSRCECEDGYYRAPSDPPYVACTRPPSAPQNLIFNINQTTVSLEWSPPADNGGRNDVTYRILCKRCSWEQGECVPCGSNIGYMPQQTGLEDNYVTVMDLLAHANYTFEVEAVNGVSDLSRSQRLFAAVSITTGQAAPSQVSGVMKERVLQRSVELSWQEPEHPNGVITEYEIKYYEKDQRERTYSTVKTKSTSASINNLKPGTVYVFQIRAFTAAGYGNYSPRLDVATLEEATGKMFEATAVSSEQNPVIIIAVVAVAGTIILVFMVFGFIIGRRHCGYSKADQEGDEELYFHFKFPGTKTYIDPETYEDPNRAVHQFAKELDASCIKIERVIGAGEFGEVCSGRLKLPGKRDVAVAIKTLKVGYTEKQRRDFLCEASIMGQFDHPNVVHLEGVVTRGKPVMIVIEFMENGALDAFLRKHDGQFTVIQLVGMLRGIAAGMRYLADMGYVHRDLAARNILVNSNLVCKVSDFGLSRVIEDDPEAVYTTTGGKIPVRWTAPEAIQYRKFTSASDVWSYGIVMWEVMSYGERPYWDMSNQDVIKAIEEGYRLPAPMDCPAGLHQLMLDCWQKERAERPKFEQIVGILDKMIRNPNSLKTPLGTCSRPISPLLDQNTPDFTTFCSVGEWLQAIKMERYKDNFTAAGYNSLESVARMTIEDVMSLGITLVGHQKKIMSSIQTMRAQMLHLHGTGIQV

[5] = target: Tyrosine-protein kinase FRK (Homo sapiens) (UniProt P42685); assay: Selectivity interaction (KinomeScan (DiscoverX)) EUB0000695a FRK; conditions: at 100 nM
[6] = target: Cyclin-dependent kinase-like 1 (Homo sapiens) (UniProt Q00532); assay: Selectivity interaction (KinomeScan (DiscoverX)) EUB0001079a CDKL1; conditions: at 1 µM
[7] = target: Serine/threonine-protein kinase 32C (Homo sapiens) (UniProt Q86UX6); assay: Selectivity interaction (LanthaScreen Eu Kinase Binding Assay) EUB0001632a STK32C; conditions: at 10 µM
Sequence of Serine/threonine-protein kinase 32C (Homo sapiens) (Q86UX6 whole entry): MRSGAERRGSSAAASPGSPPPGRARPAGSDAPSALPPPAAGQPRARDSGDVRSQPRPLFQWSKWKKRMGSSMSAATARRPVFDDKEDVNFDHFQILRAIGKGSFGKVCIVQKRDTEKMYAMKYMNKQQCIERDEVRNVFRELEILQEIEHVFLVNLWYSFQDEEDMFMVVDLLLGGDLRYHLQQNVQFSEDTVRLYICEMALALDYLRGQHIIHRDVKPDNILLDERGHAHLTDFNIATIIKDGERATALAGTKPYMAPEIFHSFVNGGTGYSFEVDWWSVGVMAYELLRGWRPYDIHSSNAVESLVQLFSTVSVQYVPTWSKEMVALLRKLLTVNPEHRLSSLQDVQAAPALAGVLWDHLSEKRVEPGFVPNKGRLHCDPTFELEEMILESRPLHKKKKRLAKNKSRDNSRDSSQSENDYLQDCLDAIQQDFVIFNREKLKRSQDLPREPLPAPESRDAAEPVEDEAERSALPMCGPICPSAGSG

[8] = test system: Tyrosine-protein kinase ABL1 (Homo sapiens), P00519 [F317L]; assay: Selectivity interaction (KinomeScan (DiscoverX)) EUB0001049a ABL1; conditions: at 1 µM
[9] = target: Tyrosine-protein kinase BTK (Homo sapiens, UniProt Q06187); assay: Selectivity interaction (KinomeScan (DiscoverX)) EUB0001049a BTK; conditions: at 1 µM
Sequence of Tyrosine-protein kinase BTK (Q06187 whole entry): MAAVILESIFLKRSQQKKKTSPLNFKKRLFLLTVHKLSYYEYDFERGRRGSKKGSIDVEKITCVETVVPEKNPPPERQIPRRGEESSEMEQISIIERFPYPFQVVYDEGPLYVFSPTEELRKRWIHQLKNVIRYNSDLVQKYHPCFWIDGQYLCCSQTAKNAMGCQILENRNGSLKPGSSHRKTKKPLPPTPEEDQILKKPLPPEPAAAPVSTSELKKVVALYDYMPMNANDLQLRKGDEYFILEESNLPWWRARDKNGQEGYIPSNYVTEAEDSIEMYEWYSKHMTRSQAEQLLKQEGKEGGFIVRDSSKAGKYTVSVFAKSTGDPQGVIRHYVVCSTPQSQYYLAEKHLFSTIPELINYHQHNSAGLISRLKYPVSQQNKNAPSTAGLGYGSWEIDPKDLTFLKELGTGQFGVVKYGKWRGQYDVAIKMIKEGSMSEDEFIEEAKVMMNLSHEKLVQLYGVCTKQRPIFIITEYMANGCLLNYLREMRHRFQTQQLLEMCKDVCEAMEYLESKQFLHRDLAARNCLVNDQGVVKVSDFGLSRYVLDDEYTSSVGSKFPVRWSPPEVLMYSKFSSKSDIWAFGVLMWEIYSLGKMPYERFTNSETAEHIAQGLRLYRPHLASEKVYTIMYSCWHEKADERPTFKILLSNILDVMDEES

[10] = target: T2, Myotonin-protein kinase (Homo sapiens) (UniProt Q09013); assay: Selectivity interaction (Upstate Kinase Profiler service (Millipore)) EUB0000056c DMPK; conditions: at 1 µM
T2 sequence (whole entry): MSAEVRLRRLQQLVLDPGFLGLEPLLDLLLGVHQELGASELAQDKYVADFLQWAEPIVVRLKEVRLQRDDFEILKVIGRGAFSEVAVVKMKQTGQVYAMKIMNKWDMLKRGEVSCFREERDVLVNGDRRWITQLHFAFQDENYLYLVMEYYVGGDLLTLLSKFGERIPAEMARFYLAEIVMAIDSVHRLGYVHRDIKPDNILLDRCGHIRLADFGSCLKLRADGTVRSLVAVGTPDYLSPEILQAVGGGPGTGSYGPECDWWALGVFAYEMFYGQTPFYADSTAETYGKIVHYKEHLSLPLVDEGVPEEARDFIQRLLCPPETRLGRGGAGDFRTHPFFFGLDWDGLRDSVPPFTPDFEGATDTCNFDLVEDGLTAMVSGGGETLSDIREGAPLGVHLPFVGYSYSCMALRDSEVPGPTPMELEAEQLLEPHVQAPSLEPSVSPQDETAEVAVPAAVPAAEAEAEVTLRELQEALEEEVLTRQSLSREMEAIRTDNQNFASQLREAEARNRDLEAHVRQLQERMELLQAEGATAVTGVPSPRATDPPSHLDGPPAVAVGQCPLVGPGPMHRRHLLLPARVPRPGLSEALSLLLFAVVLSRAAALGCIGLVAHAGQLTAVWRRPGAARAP

[11] = target: Ribosomal protein S6 kinase alpha-3 (Homo sapiens, UniProt P51812); assay: Selectivity interaction (ActivX KiNativ screen (ex vivo kinase selectivity in human PBMCs)) EUB0001619a RPS6KA3; type: cell-based; conditions: PBMC, at 1 µM
Sequence of Ribosomal protein S6 kinase alpha-3 (P51812 whole entry): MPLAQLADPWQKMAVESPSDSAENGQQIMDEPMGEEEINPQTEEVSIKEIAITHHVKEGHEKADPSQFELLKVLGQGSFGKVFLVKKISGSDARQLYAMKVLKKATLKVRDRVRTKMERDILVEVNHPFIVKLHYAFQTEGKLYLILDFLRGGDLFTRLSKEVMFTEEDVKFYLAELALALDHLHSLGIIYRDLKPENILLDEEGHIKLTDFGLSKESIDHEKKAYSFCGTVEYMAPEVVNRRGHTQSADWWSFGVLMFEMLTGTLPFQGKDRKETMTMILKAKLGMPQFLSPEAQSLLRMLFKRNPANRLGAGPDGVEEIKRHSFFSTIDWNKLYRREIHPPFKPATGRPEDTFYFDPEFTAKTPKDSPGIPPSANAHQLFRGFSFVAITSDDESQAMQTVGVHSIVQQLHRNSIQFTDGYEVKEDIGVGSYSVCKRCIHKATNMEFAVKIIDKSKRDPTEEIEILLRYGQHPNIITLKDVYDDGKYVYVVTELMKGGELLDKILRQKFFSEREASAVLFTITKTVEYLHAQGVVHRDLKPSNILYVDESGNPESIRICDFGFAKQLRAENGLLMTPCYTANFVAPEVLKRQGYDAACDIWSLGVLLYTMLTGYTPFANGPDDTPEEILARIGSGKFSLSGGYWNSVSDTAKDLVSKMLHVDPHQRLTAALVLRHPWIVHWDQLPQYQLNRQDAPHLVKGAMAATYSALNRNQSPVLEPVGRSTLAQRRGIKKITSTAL

[12] = target: T3, Serine/threonine-protein kinase DCLK1 (Homo sapiens) (UniProt O15075); assay: Selectivity interaction (KinomeScan (DiscoverX)) EUB0000607a DCLK1; conditions: at 10 µM
T3 sequence (whole entry): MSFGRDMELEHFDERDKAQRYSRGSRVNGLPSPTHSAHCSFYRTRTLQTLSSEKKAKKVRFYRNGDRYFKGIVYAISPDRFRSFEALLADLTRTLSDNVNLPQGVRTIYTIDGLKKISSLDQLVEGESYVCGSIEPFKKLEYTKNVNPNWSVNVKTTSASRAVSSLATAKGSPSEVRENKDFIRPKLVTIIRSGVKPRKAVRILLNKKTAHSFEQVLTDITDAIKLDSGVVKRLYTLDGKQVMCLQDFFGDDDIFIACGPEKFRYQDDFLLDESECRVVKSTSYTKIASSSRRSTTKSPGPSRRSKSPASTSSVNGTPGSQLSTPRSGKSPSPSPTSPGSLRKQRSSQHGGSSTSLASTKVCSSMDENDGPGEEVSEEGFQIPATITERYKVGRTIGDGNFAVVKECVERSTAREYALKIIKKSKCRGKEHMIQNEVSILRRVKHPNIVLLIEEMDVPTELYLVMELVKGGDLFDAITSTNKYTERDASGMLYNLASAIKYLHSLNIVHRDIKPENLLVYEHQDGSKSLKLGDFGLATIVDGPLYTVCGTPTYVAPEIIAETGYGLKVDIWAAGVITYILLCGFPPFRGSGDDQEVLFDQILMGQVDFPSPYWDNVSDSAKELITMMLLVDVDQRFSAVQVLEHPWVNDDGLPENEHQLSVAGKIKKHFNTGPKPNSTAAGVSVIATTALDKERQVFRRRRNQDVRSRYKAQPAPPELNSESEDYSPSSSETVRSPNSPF

[13] = Selectivity interaction (KinomeScan (DiscoverX)) EUB0000607a PKNB; conditions: at 10 µM
[14] = target: Tyrosine-protein kinase HCK (Homo sapiens) (UniProt P08631); assay: Selectivity interaction (KinomeScan (DiscoverX)) EUB0000618a HCK; conditions: at 10 µM
Sequence of Tyrosine-protein kinase HCK (Homo sapiens) (P08631 2-526 limits assumed): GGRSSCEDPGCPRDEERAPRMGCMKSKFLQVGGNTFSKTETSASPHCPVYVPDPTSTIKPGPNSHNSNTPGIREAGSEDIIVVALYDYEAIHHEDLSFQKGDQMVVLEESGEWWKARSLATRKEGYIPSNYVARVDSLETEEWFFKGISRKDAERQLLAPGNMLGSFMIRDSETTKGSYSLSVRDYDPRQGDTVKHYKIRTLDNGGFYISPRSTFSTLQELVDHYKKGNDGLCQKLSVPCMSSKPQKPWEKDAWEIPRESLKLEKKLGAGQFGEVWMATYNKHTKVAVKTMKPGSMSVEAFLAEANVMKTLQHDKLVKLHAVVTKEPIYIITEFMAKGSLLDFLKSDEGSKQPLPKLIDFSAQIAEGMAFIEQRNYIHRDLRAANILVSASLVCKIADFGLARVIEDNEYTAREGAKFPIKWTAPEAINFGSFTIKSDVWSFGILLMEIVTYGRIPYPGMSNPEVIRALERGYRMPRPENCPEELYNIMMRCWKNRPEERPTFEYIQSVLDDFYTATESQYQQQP

[15] = target: Calcium/calmodulin-dependent protein kinase type 1 (Homo sapiens) (UniProt Q14012); assay: Selectivity interaction (ActivX KiNativ screen (kinase selectivity in THP-1 cell lysates)) EUB0000639a CAMK1; type: subcellular; conditions: lysate, at 1 µM
Sequence of Calcium/calmodulin-dependent protein kinase type 1 (Homo sapiens) (Q14012 whole entry, looked up): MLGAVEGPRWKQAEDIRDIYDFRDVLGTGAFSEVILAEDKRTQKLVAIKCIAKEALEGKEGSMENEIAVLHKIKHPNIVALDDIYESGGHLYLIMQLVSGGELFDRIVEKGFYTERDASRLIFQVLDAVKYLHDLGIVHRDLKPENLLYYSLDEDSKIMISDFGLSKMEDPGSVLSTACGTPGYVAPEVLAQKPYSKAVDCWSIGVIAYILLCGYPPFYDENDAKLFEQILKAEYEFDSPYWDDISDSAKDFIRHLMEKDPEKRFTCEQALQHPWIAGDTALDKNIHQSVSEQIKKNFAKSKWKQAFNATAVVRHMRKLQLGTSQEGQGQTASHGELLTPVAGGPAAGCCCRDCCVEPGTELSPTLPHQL

Sequence of 5-hydroxytryptamine receptor 2B (P41595 whole entry): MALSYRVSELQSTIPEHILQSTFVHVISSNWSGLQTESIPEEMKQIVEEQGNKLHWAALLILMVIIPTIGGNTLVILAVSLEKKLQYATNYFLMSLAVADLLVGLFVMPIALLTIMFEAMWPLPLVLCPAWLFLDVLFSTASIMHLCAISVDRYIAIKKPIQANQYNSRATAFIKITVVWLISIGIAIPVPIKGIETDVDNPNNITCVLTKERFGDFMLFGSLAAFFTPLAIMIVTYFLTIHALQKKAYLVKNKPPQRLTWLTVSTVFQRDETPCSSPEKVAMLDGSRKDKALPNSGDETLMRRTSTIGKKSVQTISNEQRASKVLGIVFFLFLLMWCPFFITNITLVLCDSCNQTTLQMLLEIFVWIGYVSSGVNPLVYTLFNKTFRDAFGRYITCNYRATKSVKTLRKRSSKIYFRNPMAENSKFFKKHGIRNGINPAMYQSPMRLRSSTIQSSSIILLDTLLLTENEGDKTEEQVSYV

CCc1ccccc1C(=O)Nc1n[nH]c2c(C)c(F)c(C3C(C#N)=C(C)N(C)C(C)=C3C#N)cc12 [BAY-3827]
% of inhibition [1]: 32.5%

COCC(=O)NC/C=C/c1ccc2ncnc(Nc3ccc(Oc4ccc(C)nc4)c(C)c3)c2c1 [CP-724714]
% of control [2]: 100%

CNCCN1CCC(c2cc(CN(C)C(=O)c3cccc(Oc4ccccc4)c3)ccn2)CC1
IC50 [3]: > 10 µM

CN(C(=O)c1cnn2cccnc12)c1cc2c(cc1N1CCOCC1)C(=O)N(C[C@@H](F)C(C)(C)O)C2
dTM [4]: 0.1 K

Cc1cc(F)c(C(=O)Nc2cccc(-c3nncn3C(C)C)n2)cc1-n1cnc(C2CC2)c1
% of control [5]: 100%

Nc1cnc(N2CCc3cc(S(=O)(=O)Nc4c(F)cc(Cl)cc4F)cc(N4CCCC4=O)c32)nc1 [TP-020n]
% of control [6]: 85%

Cn1cc(-n2cnc3c(NCc4nc5cc(Cl)c(Cl)cc5[nH]4)nc(N4CCOCC4)nc32)cn1
% of inhibition [7]: -34.6%

COc1cc(Nc2nc(C)cc(-c3cnn4nc(OC)ccc34)n2)cc(C(F)(F)F)c1
% of control [8]: 91%
% of control [9]: 87%

Cc1ccc(-c2ccc3c(ccc4sc5c(c43)NC[C@@H](C)NC5=O)n2)cn1
% of inhibition [10]: -8%

N#Cc1cccc(-c2c[nH]c3ncnc(N4CCOCC4)c23)c1
% of inhibition [11]: 6%

CNC(=O)Nc1ccc(-c2nc(N3CC4CCC(C3)O4)c3cnn(C4CCC5(CC4)OCCO5)c3n2)cc1
% of control [12]: 100%
% of control [13]: 94%

O[C@H]1CC[C@H](Nc2ncc3nc(Nc4c(F)cc(F)cc4F)n([C@H]4CCOC4)c3n2)CC1
% of control [14]: 100%

CC[C@@H]1[C@H](F)C(=O)N[C@@H]1COc1nccc2cc(C(N)=O)c(OC)cc12 [ZIMLOVISERTIB]
% of inhibition [15]: -14.5%
